US12678423B2, “Therapeutic agent for amyotrophic lateral sclerosis and composition for treatment” (KEIO UNIVERSITY, priority 2016, dated 2026)

How the values were obtained:
Type in all cases: cell-based, human
[1] = tested on: motor neurons induced to differentiate from iPS cells derived from ALS patients (FUS-ALS) having a mutation in FUS; experiment: Stress granule formation (G3BP immunostaining), FUS-ALS motor neurons
Description: On day 40 from the start of differentiation induction, the formation of stress granules was examined using each differentiation-induced motor neuron in Example I-1. The detection of stress granules was performed by immunostaining with G3BP, which is a marker of stress granules.
Using the differentiation-induced motor neurons in Example I-1, drugs which cause the ALS phenotype to be restored were screened from existing drug libraries with the neurite length, ectopic localization of FUS protein, stress granule formation, LDH leakage ratio, CV-caspase 3-positive ratio, phosphorylated TDP-43 protein inclusion formation, and the like as indices.
As a result of the screening, ropinirole was found as a promising therapeutic agent for ALS. Tables 5 and 6 show the improvement ratio (%) in the ALS phenotype due to adding ropinirole to the medium. Here, ropinirole was added to the medium on days 35 to 40 from the start of the differentiation induction of each iPS cell. Here, it is assumed that days 35 to 40 from the start of differentiation induction correspond to the early stage of the ALS disease.
(§1) The improvement ratio (%) of the ALS phenotype was calculated by Equation (1).
(§2) [formula] [In Equation (1), A represents a measurement value of motor neurons induced to differentiate from iPS cells derived from ALS patients in the absence of ropinirole, and B represents a measurement value of motor neurons induced to differentiate from iPS cells derived from ALS patients in the presence of ropinirole, and C represents a measurement value of motor neurons induced to differentiate from iPS cells derived from healthy subjects in the absence of ropinirole.]
(§3) Subsequently, in the same manner as above, the efficacy in cases of administering lower concentrations of ropinirole was evaluated.
(§4) Each drug was added to the medium at a final concentration of 10 μM.

[2] = tested on: motor neurons induced to differentiate from iPS cells derived from ALS patients (FUS-ALS) having a mutation in FUS; experiment: LDH leakage ratio, FUS-ALS motor neurons
Description: The leakage amount of LDH into the medium is an indicator of cytotoxicity. For measurement of the LDH leakage ratio, a commercially available kit (model “LDH Cytotoxicity Detection Kit”, Takara Bio Inc.) was used.
Here, ropinirole was added to the medium on days 35 to 40 from the start of the differentiation induction of each iPS cell. Here, it is assumed that days 35 to 40 from the start of differentiation induction correspond to the early stage of the ALS disease.
as §1, §2, §3, §4

[3] = tested on: motor neurons induced to differentiate from iPS cells derived from SALS patients; experiment: Stress granules, sporadic ALS model (Example III-4); conditions: final concentration 1 μM, days 35 to 40, measured on day 40, FIG. 13
Description: In the same manner as in Example I-1, iPS cells derived from sporadic ALS (may be referred to below as “SALS”) patients were differentiated into motor neurons. All the iPS cells used were derived from dermal fibroblasts. Below, each differentiated motor neuron is identified by the patient number from whom the neuron was derived.
In the same manner as in Example II-1, iPS cells derived from sporadic ALS (SALS) patients were induced to differentiate into motor neurons, and ropinirole with a final concentration of 1 μM was added to the medium. More specifically, for the period of days 35 to 40 from the start of differentiation induction, ropinirole having a final concentration of 1 μM was added to the medium. In addition, a group for which ropinirole was not added to the medium was prepared as a control. In addition, for comparison, iPS cells derived from healthy subjects were differentiated into motor neurons in the same manner as in Example I-1. No ropinirole was added to the medium of these motor neurons. As the iPS cells derived from a healthy subject, the same cells as used in Example I-1 were used.
Subsequently, on day 40 from the start of differentiation induction, the number of stress granules was measured for each motor neuron in the same manner as in Example I-7.
FIG. 13 is a graph showing the measurement result of the number of stress granules. […]

[4] = tested on: motor neurons induced to differentiate from iPS cells derived from ALS patients (TDP-43-ALS) having a mutation in TDP-43; experiment: Neurite length in late stage ALS disease, TDP-43-ALS (Example I-9); conditions: final concentration 1 μM, added days 50 to 62 from start of differentiation induction, FIG. 14
Description: The efficacy of ropinirole was evaluated in the same manner as in Example I-8, except that the timing of adding ropinirole was changed to days 50 to 62 from the start of the differentiation induction of each iPS cell. It is assumed that days 50 to 62 after the start of induction of differentiation correspond to the late stage of the ALS disease.
Specifically, ropinirole was added to a medium of motor neurons induced to differentiate from iPS cells derived from ALS patients (FUS-ALS) having a mutation in FUS and motor neurons induced to differentiate from iPS cells derived from ALS patients (TDP-43-ALS) having a mutation in TDP-43 and the changes over time in the neurite length were measured. The measurement of neurite length was carried out in the same manner as in Example I-2. Ropinirole was added to the medium at a final concentration of 1 μM.
FIG. 14(a) is a graph showing the results of measurement of the changes over time in the neurite length of each motor neuron. In FIG. 14(a), the vertical axis represents the neurite length (relative value), the horizontal axis represents the number of days of culturing from the start of differentiation induction, and “+ROPI” represents the result of adding ropinirole to the medium. In addition, FIG. 14(b) is a graph enlarging the boxed portion of the graph of FIG. 14(a). […]

[5] = final concentration 0.1 μM, added days 35 to 40
[6] = final concentration 1 μM, added days 35 to 40
[7] = final concentration 10 μM, added days 35 to 40

Compound: CCCN(CCC)CCc1cccc2c1CC(=O)N2 [Ropinirole, 4-(2-di-n-propylaminoethyl)-2(3H)-indole]
- Stress granule formation improvement ratio ([1]; final concentration 0.1 nM): 8.2%
- Stress granule formation improvement ratio ([1]; final concentration 1 nM): 23.2%
- Stress granule formation improvement ratio ([1]; final concentration 10 nM): 39.3%
- Stress granule formation improvement ratio [1, 5]: 36.6%
- Stress granule formation improvement ratio [1, 6]: 34.4%
- Stress granule formation improvement ratio [1, 7]: 66.1%
- LDH leakage ratio improvement ratio ([2]; final concentration 0.1 nM): 10.1%
- LDH leakage ratio improvement ratio ([2]; final concentration 1 nM): 31.1%
- LDH leakage ratio improvement ratio ([2]; final concentration 10 nM): 39.4%
- LDH leakage ratio improvement ratio [2, 5]: 33.5%
- LDH leakage ratio improvement ratio [2, 6]: 48.0%
- LDH leakage ratio improvement ratio [2, 7]: 47.6%
- Number of stress granules [3]: significantly decreased
- Neurite length (changes over time), late stage [4]: neuroprotective action (maintenance of neurite length)
